Laboratory results reported in patent US9844535B2, “SHP2 inhibitors and methods of treating autoimmune and/or glomerulonephritis-associated diseases using SHP2 inhibitors” (Indiana University Research and Technology Corporation, priority 2013, dated 2017).
Entries after “also recorded” stand apart in the source; their conditions may differ.

Columns and labels:
MRL/lpr mice = assay: Longevity study; format: in vivo, mouse; settings: SLE-prone MRL/lpr mice, 7.5 mg/kg/day ip from 11 weeks of age; listed as SHP2 inhibitor
Protocol: Female MRL/lpr mice were used for a survival/longevity curve analysis. Mice either ip injected with vehicle (DMSO) or SHP2 inhibitor (7.5 mg/kg/each day) were followed beginning at 11 weeks of age to assess tolerance to the inhibitor and longevity/survival curve. The testing was terminated when the last mouse in the control group died, at 26 weeks.

SLE-prone MRL/lpr mice = assay: SLE disease progression in MRL/lpr mice (skin, spleen, kidney, thymus, proteinuria, histology, body weight); format: in vivo, mouse
Protocol: Briefly, female MRL/MpJ-fas lpr (MRL/lpr), MRL/Mpj and C57BL/6J mice were purchased from the Jackson Laboratory (Bar Harbor, Me.). For experiments, mice within each group were ip injected with either vehicle (DMSO) or the SHP2 inhibitor (7.5 mg/kg/per day). Testing continued for a period of 6 weeks, starting at 11 weeks of age to 17 weeks. Body weight was measured daily and treatment dosage was adjusted accordingly. At the end of the treatment period, mice were sacrificed with CO2 exsanguination and SLE targeted organs were removed. For each mouse, spleen, kidney, and heart weight were calculated. In addition, total animal body weight and tibia length were measured. Peripheral blood/serum was also collected for use in the cytokine assays described below.
Harvested organs (kidney, spleen, and heart) to be used to assess morphometry and histochemistry were flushed with PBS, perfusion fixed in Bouin's reagent, and paraffin embedded. Sections (5 μm) were stained with Hematoxylin and Eosin (H&E), Periodic acid—Schiff stain (PAS), Masson-Trichrome, or reticulin staining at the Harvard Medical School Rodent Histopathology Core and scored using an unbiased approach, in which histology scores of 1 (normal) to 5 (most severe pathology) were designated to tissue sections which were only numerically labeled and in no particular order (by Dr. Roderick Bronson, director of the Rodent Histopathology Core, Harvard Medical School). Numerical sections were later decoded, marked for their designated score, and statistically analyzed. Images of the tissue sections were obtained and quantified on a Keyence BZ-9000 Microscope (Keyence Corporation, Itasca, Ill.).
To determine kidney function, urine was collected before mice were sacrificed. Albumin and creatinine in the urine were measured using colorimetric assays according to the manufacturer's instructions (Albuwell M; The creatinine companion, Exocell), as described below. The kidney function was calculated as ratio of albumin to creatinine levels.
Albumin and creatinine levels: For the albumin assay, collected mouse urine was diluted at 1:5200× and 50 μl was loaded onto an albumin precoated 96-well plate, followed by primary incubation, secondary incubation and colorimetric determination. For the creatinine assay, the urine was diluted 20× and loaded onto a 96-well plate, and picrate working solution and acid reagent were added sequentially according to protocol. Absorbance was assayed using a plate reader set at a wavelength of 495 nm.
To determine whether inhibition of SHP2 activity affected SLE disease progression, each of the SLE target tissues (i.e., skin, kidney, spleen) was tested in both treated and untreated SLE-prone mice. Particularly, tissues were tested as: WT treated with inhibitor, WT treated with DMSO (vehicle), MRL/mpJ treated with inhibitor, MRL/mpf treated with DMSO (vehicle), MRL/lpr treated with inhibitor, and MRL/lpr treated with DMSO (vehicle).

[1] = test system: MRL/lpr mouse kidney immune cells; assay: Flow cytometry of immune cells infiltrating the kidney; format: in vivo; settings: MRL/lpr mice vs vehicle
Protocol: Kidney, spleen, lung, and axillary lymph nodes were excised from either vehicle or drug-treated mice, and single cell suspensions were obtained by teasing the organs through a nylon mesh. Briefly, kidneys were cut into small pieces and homogenized on a 70 μm nylon mesh in 5 ml of Hank's Balanced Salt Solution (HBSS) buffer. All of the homogenized tissues and cells were transferred to new 50 ml tubes and digested with collagenase type 4 (100 ug/ml) (Worthington Biochemical Corp., Freehold, N.J.) in HBSS for 30 minutes to 2 hours (37° C.) on a rotating shaker. After digestion, the cells were centrifuged at 2000 rpm for 10 minutes, and the kidney cell isolates were generated, which included infiltrated immune cell subsets.
To identify immune cell subsets, isolated cells from tissues were immunostained with mouse antibodies targeted against CD3E (145-2C11, BioLegend, San Diego, Calif.), CD4 (GK1.5, BioLegend), CD8 (53-6.7, eBioscience, San Diego, Calif.), CD45 (30-F11, eBioscience), CD 19 (6125, BioLegend), CD11b (M1170, BioLegend), TCRαβ (H57-597, BioLegend), CD44 (IM7, BioLegend), B220 (RA3-6B2, B.D. […], BD Biosciences, San Jose Calif.), CD138 (281-2, BioLegend), CD38 (CD28.2, BioLegend), Gr-1 (RB6.805, eBioscience), CD62L (DREG-56, BioLegend), and CD25 (PC61, BioLegend) for 30 minutes at 4° C. Samples were acquired on a LSR II flow cytometer (BD Biosciences) and the percentage of each sub-population of cells (B, T, monocytes, macrophage and neutrophils) was assessed by FlowJo [version 7.2.2 (Tree Star)]. Total cell numbers were counted using a hemocytometer. Absolute cell numbers for each sub-population were calculated based on the percentage of each population.
B cells, T cells, macrophage and neutrophils from the MRL/lpr inhibitor-treated and vehicle-treated mouse kidneys of Example 9 were isolated.

[2] = MRL/lpr mice, treatment for 6 weeks

## Cn1c(-c2cccc(NC(=O)C(=O)Nc3ccc(-c4ccsc4)cc3)c2)c(I)c2cc(C(=O)O)c(O)cc21 [11a-1]
MRL/lpr mice
  lifespan / survival (Kaplan-Meier): significantly increased lifespan; also recorded: increased longevity/survival effect
SLE-prone MRL/lpr mice; 7.5 mg/kg/day
  cytotoxic effects during the treatment period: no obvious cytotoxic effects
SLE-prone MRL/lpr mice; MRL/lpr mice
  SLE-related disease phenotype in the kidney (histology: glomerulonephritis, fibrosis, immune cell infiltration): prevented the development of this SLE-related disease phenotype in the kidney
  unbiased histopathological scoring of kidney: quantifiably prevented the development of SLE-related disease phenotype
SLE-prone MRL/lpr mice; [2]
  kidney size: normalized the kidney to a size
  splenomegaly (spleen size and weight): reduced splenomegaly
SLE-prone MRL/lpr mice; SLE kidneys
  PAS staining of kidney tissue: decreased inflammatory infiltration in the tissue, smaller glomeruli, decreased fibrosis, and decreased numbers of mesangial cells surrounding the glomerulus
SLE-prone MRL/lpr mice; SLE mice vs vehicle-treated
  proteinuria: significant reduction in proteinuria
SLE-prone MRL/lpr mice; SLE-prone mice
  thymus size: decreased thymus size
SLE-prone MRL/lpr mice; SLE-prone mice, 7.5 mg/kg/day
  skin lesions/inflammation: reduced the skin lesions/inflammation
SLE-prone MRL/lpr mice; mice, 7.5 mg/kg/day ip
  body weight during treatment period: no change in body weight
[1]
  B cells in kidney: no discernable differences
  infiltrating T cells in the SLE kidney: significantly reducing the overall number of CD4, CD8, and double-negative T cells
  infiltrating neutrophils and macrophages in kidney: significant reduction in numbers of infiltrating neutrophils and macrophages
